Structures are written as SMILES. Records with an inconclusive call do not appear. Active and inactive are the calls of the source.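 The calls were made as follows: active = score of 100, meaning the red fluorescent reporter moved fully into the nucleus as with estrogen, or estrogen's effect was fully blocked; inactive = score of 0 or 50, meaning partial or no effect.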

The results in this text go back to PubChem BioAssay AID1218 (NMMLSC, 2008).

In this test the target is Estrogen receptor beta (Homo sapiens) (UniProt Q92731). Nature of the test: ERbeta agonist-driven PIP3 reporter relocation, confirmation, orthogonal assay for ERbeta ligand project, imaging, Cos7 cells, ERbeta-GFP, PH-RFP reporter (AID 1218). The conditions noted are these: PIP3 translocation imaging, at 10 µM, stronger effect = higher value.
Chain of Estrogen receptor beta (Homo sapiens) (Q92731 whole entry, looked up): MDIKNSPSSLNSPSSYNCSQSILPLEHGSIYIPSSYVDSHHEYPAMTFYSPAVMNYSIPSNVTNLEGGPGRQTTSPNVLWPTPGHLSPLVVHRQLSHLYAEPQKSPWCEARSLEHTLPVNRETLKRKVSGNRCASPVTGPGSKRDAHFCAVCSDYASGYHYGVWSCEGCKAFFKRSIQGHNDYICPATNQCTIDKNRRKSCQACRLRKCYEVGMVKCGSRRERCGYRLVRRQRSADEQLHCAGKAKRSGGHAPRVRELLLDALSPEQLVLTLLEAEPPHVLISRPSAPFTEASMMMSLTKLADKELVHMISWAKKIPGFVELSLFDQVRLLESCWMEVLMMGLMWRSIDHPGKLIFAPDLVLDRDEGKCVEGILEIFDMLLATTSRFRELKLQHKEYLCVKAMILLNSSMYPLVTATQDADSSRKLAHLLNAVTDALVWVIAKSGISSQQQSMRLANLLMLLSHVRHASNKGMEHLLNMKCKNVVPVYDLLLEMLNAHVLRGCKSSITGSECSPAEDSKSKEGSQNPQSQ
In the case of `Brc1cc2c(cc1C1Nc3ccccc3C3C=CCC31)OCO2` (stereo not drawn), the response score is 0 (inactive).
The result for `COc1ccccc1N1CCN(C(=O)c2ccc3nc(-c4ccco4)c(-c4ccco4)nc3c2)CC1` reads 100; that for `Cc1cc(-c2nn3c(-c4ccccc4)nnc3s2)c2ccccc2n1`, 100; that for `Nc1ncnc2c1ncn2C1CCC(CO)C(O)C1` (stereo not drawn), 50 (inactive).
For `COc1cccc(NS(=O)(=O)c2ccc3c(c2)C2C=CCC2C(c2ccc(C(=O)O)cc2)N3)c1` (stereo not drawn) the value was 50 (inactive); for `O=C(O)c1cc(Cl)c2c(c1)[C@@H]1C=CC[C@@H]1[C@H](c1ccc(S(=O)(=O)N3CCOCC3)cc1)N2`, 50 (inactive).
For `O=C(O)c1ccc2c(c1)C1C(Cl)C(Sc3ccccc3[N+](=O)[O-])CC1C(c1cccc([N+](=O)[O-])c1)N2` (stereo not drawn) the value was 0 (inactive); for `Cc1cc(C)c2c(c1)[C@@H]1C=CC[C@@H]1[C@H](c1ccc(S(=O)(=O)N3CCOCC3)cc1)N2`, 100.
